# Source: US20140073607A1, “COMPOUNDS FOR USE IN THE TREATMENT OF FELINE RETROVIRAL INFECTIONS” (OKAPI SCIENCES NV, priority 2011, published 2014)
# How the values were obtained:
# FIV [1] = conditions: FIV-infected cats, Hartmann et al. 1998; cited from earlier work
# FIV-Ut113 = test: Inhibition of FIV replication in CrFK cells co-infected with FeLV and FIV (p24 ELISA and RT-qPCR); format: cell-based; conditions: CrFK cells co-infected with FeLV and FIV-Ut113, six days; mean ± SD of three independent assays
# Experimental: (§1) The compounds were dissolved in a 0.05 N sodium hydroxide solution at a concentration of 10 mg/ml. Reference compounds PMEDAP and PMEA were dissolved in a sodium bicarbonate buffer at a concentration of 10 mg/ml.
# (§2) Crandell Reese Feline kidney (CrFK) cells were grown in Dulbecco minimum essential medium (DMEM, Life Technologies) containing 1% sodium bicarbonate (Life Technologies) and 5% fetal calf serum (FCS, Biochrom). In a 96-well plate 5000 CrFK cells were seeded and incubated for 24 h at 37° C. in a humid atmosphere containing 5% CO2. Subsequently cells were washed with 100 μl phosphate buffered saline (PBS) containing 50 μg/ml DEAE-dextran and co-infected with 100 CCID50 FeLV and 100 CCID50 FIV-Ut113 in presence of increasing doses of the compounds (0.4; 2; 10 and 50 μg/ml). After 2 h of incubation allowing the virus to enter the cells, the supernatant was removed and the cells were washed with PBS. […] The cells were incubated for six days when viral supernatant was collected and analyzed by ELISA for FeLV p27 and FIV p24 antigen production and real time RT-qPCR for FeLV and FIV RNA production. […] Subsequently the amount of FIV p24 was detected by a monoclonal biotinylated antibody 5E6D11 followed by a colorimetric reaction which is based on extravidin peroxidase (Sigma) and OPD substrate (Sigma).
# FeLV [2] = test: Inhibition of FeLV replication in CrFK cells co-infected with FeLV and FIV (p27 ELISA and RT-qPCR); format: cell-based; conditions: CrFK cells co-infected with FeLV and FIV-Ut113, six days; mean ± SD of three independent assays
# Experimental: as §1, §2
# FIV [3] = test: Treatment of clinically ill cats naturally infected with FIV; format: in vivo, cat
# Experimental: The compounds were dissolved to a concentration ranging between 50 and 250 mg/mL in an appropriate aqueous buffered sodium hydroxide solution close to neutral pH conditions (pH between 6 and 9).
# The formulated compounds were administered via the subcutaneous route at least once weekly at total dose rates ranging between 10 and 175 mg/kg per week. Treatment duration was between 1 week and 3 months.
# The results of the treatment of cats with specific symptoms are discussed below. • Cats with oral signs. • Oral signs can present themselves as, but are not limited to, stomatitis, gingivitis, faucitis, glossitis, periodontitis, gingivostomatitis, ulcerations of the tonsils and tongue, salivation etc. […] Spontaneous bleeding was no longer observed and the bloody red inflammation diminished to a slightly pinkish observation. No other treatment was given concomitantly. • Cats with high viral load • FIV, as a retrovirus, reverse transcribes its viral RNA genome into proviral DNA which is subsequently inserted into the genome of its host. […] Reduction of viral load is important in controlling FIV infection in the cat. […] The graphs in FIGS. 1A, B and C represent the viral load pre and post treatment with the compounds in three different cats. No other treatment was given concomitantly. • Lethargic and emaciated cat, with severe weight loss • The FIV-positive cat was presented to the veterinarian with the following clinical signs: lethargy, emaciation, difficulty to walk, unable to jump up/off a chair, no desire to go outdoors, prolonged sleeping patterns. Prognosis was to euthanize the cat. • Treatment with the compounds was initiated and within a matter of weeks, the cat returned to normal, gained weight (0.6 kg), walked and played around, stayed outdoors for several consecutive days. […] No other treatment was given concomitantly. • Cat with lymphadenopathy (swollen/enlarged lymph nodes) • A male FIV-positive cat with swollen Lnn. poplitei (score 4; severity is scored on a scale from 0 to 10 with 0 representing a normal clinical picture and 10 being the most severe manifestation) was treated with the compounds. Within two weeks the swelling went down to a score of 2. At the end of the 6-week treatment period with the compounds a score of 1 was noted; 0 representing a normal clinical picture. […] Before treatment the Lnn. poplitei were swollen (score 2). Two weeks into treatment the lymphnodes returned to normal (score 0) which was maintained throughout the 6-week treatment period with the compounds. • Similar observations were made for two FIV-positive cats. When treatment was initiated the Lnn. mandibulares were swollen (score 2 and 3, respectively). The returned to normal (score 0) by the end of the 6-week treatment with the compounds. • Cat with inflammation of the eye • A female FIV-positive cat suffered from chronic inflammation of the eye before treatment with the compounds was initiated despite concurrent antibacterial treatment. […] No other treatment was given concomitantly. One week following treatment the cat was able to sit up straight and eat on its own. Treatment was continued for another four weeks after which the cat was able to walk, climb up and down stairs, and eat on its own. […] The Karnofsky's score has proven its validity in cats to assess and compare the efficacy of antiviral compounds (Hartmann et al., J Acquir Immune Defic Syndr Hum Retrovirol 1998). Table 4 summarizes the Karnofsky's score of two FIV-positive cats before, during and post treatment with the compounds. No other treatment was given concomitantly.
# FeLV [4] = test: Treatment of cats naturally infected with FeLV; format: in vivo, cat
# FeLV [5] = test: Inhibition of FeLV replication in CrFK cell culture (p27 ELISA and RT-qPCR); format: cell-based; conditions: CrFK cells, 100 CCID50 FeLV, six days, mean ± SD of three independent assays
# Experimental: The compounds were dissolved in a 0.05 N sodium hydroxide solution at a concentration of 10 mg/ml. Crandell Reese Feline kidney (CrFK) cells were grown in Dulbecco minimum essential medium (DMEM, Life Technologies) containing 1% sodium bicarbonate (Life Technologies) and 5% fetal calf serum (FCS, Biochrom). In a 96-well plate 5000 CrFK cells were seeded and incubated for 24 h at 37° C. in a humid atmosphere containing 5% CO2. Subsequently cells were washed with 100 μl phosphate buffered saline (PBS) containing 50 μg/ml DEAE-dextran and inoculated with 100 CCID50 FeLV in presence of increasing doses of the compounds (0.4; 2; 10 and 50 μg/ml). After 2 h of incubation allowing the virus to enter the cells, the supernatant was removed and the cells were washed with PBS. DMEM including 5% FCS and containing increasing doses of the compounds were added to the infected cells. Infected cells without compounds were included as positive controls (virus control) and uninfected cells were included as negative controls (cell control). The cells were incubated for six days when viral supernatant was collected and analyzed by enzyme-linked immunosorbent assay (ELISA) for FeLV p27 antigen production and real time RT-qPCR for FeLV RNA production. […]
# FIV and FeLV = test: Treatment of cats naturally co-infected with FIV and FeLV; format: in vivo; conditions: cat co-infected with FIV and FeLV, pre versus post treatment (FIG. 2); no other treatment
# Experimental: The compounds were dissolved in an appropriate aqueous buffered sodium hydroxide solution (at concentration ranging between 50 and 250 mg/ml and close to neutral pH conditions (pH between 6 and 9). The formulated compounds were administered via the subcutaneous route at least once weekly at total dose rates ranging between 10 and 175 mg/kg per week. Treatment duration was between 1 week and 3 months.
# FIV and FeLV, as retroviruses, reverse transcribe their viral RNA genome into proviral DNA which is subsequently inserted into the genome of its host. […] Reduction of viral load is important in controlling FIV/FeLV infection in the cat. […] The graph in FIG. 2 represents the viral load pre and post treatment with the compounds in a cat co-infected with FIV and FeLV. No other treatment was given concomitantly.
# [6] = FIV-positive cat A, 50% before treatment
# [7] = FIV-positive cat B, 30.5% before treatment
smiles,measurement,setting,value
"Nc1ncnc2c1ncn2C[C@@H](CF)OCP(=O)(O)O [FPMPA, (S)-9-(3-fluoro-2-phosphonylmethoxypropyl)adenine]",Effect on FIV load,FIV [1],reduced the FIV load
same,Improvement in Karnofsky's score,FIV [1],3.8%
"CC(Cn1cnc2c(N)nc(N)nc21)OCP(=O)(O)O (centres unmarked) [R-PMPDAP, 9-(2-phosphonylmethoxypropyl)-2,6-diaminopurine]",EC50 FIV ELISA (p24),FIV-Ut113,0.332 ± 0.035 µg/mL
same,EC50 FIV RT-qPCR,FIV-Ut113,0.258 ± 0.024 µg/mL
same,EC50 FeLV ELISA (p27),FeLV [2],0.062 ± 0.010 µg/mL
same,EC50 FeLV RT-qPCR,FeLV [2],0.095 ± 0.050 µg/mL
same,"Karnofsky's score, 1 month post cessation of treatment",FIV [3]; [6],90%
same,"Karnofsky's score, during treatment",FIV [3]; [6],70%
same,"Karnofsky's score, end of treatment",FIV [3]; [6],90%
same,"Karnofsky's score, 1 month post cessation of treatment",FIV [3]; [7],35%
same,"Karnofsky's score, during treatment",FIV [3]; [7],50%
same,"Karnofsky's score, end of treatment",FIV [3]; [7],50%
same,Stomatitis upon treatment,"FIV [3]; FIV-positive cat with severe caudal stomatitis and buccostomatitis, subcutaneous, 10-175 mg/kg per week, no other treatment",the stomatitis decreased significantly
same,Gingivitis upon treatment,"FIV [3]; FIV-positive cat with severe gingivitis with spontaneous bleeding, subcutaneous, no other treatment",the gingivitis decreased significantly
same,Viral load (FIV virions per mL plasma),"FIV [3]; FIV-positive cats, pre versus post treatment, three cats (FIG. 1A, B, C)",significantly reduce the viral load
same,Chronic inflammation of the eye following treatment,"FIV [3]; female FIV-positive cat, concurrent antibacterial treatment",on its way to full recovery
same,Swelling score of Lnn. poplitei,"FIV [3]; female FIV-positive cat, score 2 before treatment, scale 0 to 10, two weeks into treatment, maintained throughout 6 weeks",0
same,Weight gained,"FIV [3]; lethargic, emaciated FIV-positive cat with severe weight loss, within a matter of weeks",0.6 kg
same,General condition,"FIV [3]; lethargic, emaciated FIV-positive cat, prognosis was to euthanize, within a matter of weeks",general condition returned to normal
same,Swelling score of Lnn. poplitei,"FIV [3]; male FIV-positive cat, score 4 before treatment, scale 0 to 10, end of the 6-week treatment period",1
same,Swelling score of Lnn. poplitei,"FIV [3]; male FIV-positive cat, score 4 before treatment, scale 0 to 10, within two weeks",2
same,Neurological symptoms (acute paresis of left front and hind legs),"FIV [3]; male FIV-positive cat, shortly after five weeks of treatment, no other treatment",A full recovery was observed
same,Feces (chronic daily diarrhea),"FIV [3]; male FIV-positive cat, within two weeks",returned to normal within two weeks
same,Swelling score of Lnn. mandibulares,"FIV [3]; two FIV-positive cats, score 2 and 3 at start, scale 0 to 10, end of the 6-week treatment",0
same,FeLV viral load after treatment,"FeLV [4]; female FeLV-positive viremic cat, RT-qPCR, decreased from 15500",3200 FeLV virions per mL plasma
same,Karnofsky's score at the end of the 3-week treatment period,"FeLV [4]; male FeLV-positive cat with clinical signs, 58.5% before treatment",80%
same,FeLV associated clinical signs following treatment,"FeLV [4]; male FeLV-positive cat with oral inflammation, lymphadenopathy, diarrhea",the clinical signs ameliorated
same,"EC50 of FeLV replication, RT-qPCR",FeLV [5]; FeLV RNA in supernatant,0.039 ± 0.024 µg/mL
same,"EC50 of FeLV replication, p27 ELISA",FeLV [5]; p27 antigen in supernatant,0.030 ± 0.006 µg/mL
same,Viral load (FIV/FeLV virions per mL plasma),FIV and FeLV,significantly reduce the viral load
"Nc1ncnc2c1ncn2CCOCP(=O)(O)O [PMEA, 9-(2-phosphonylmethoxyethyl)adenine, reference compound]",Effect on FIV load,FIV [1],did not decrease the FIV load
same,Improvement in Karnofsky's score,FIV [1],10%
